The values below come from US20180216060A1, “METHODS AND MEANS FOR THE MODIFICATION OF CELL SURFACES” (ACADEMISCH ZIEKENHUIS LEIDEN (ALSO ACTING UNDER THE NAME OF …, priority 2015, published 2018).

The nature of assay [1]: Sensing: binding of functionalized cells to a glass slide coated with β-cyclodextrin. The note with it: 1 h ligand incubation, 15 min on slide. The protocol:
A glass slide was coated with β-cyclodextrin in a line of 400 micrometer wide. CXCR4 expressing cells (see previous examples) were incubated for 1 h with the ligand-guest compound Ac-TZ14011-Ad as discussed above and then added to the glass slide and incubated for 15 min. […] The conclusion of this experiment is that cells can be selectively found (and bound) within a solution by using the guest-host chemistry of the present invention. This enables one to purify (and at least to sense) particular types of cells within a solution and/or mixture of cells.

Assay [2] addresses T1, CXCR4 receptor (Homo sapiens, UniProt P61073).
T1 construct: expressed in transfected cells; host or cells: MDA-MB-231 human breast cancer cells (MDA-GFP-CXCR4+), gift of Dr. Gary Luker
In words: Flow cytometry competition with Ac-TZ14011-MSAP to determine receptor affinity (KD). It counts as binding. To be noted: competition with Ac-TZ14011-MSAP (250 nM), MDA-GFP-CXCR4+ cells. From the text:
The necessity of a multivalent approach was studied by direct comparison between an entity comprising polymeric host functional groups (multivalent) and a monovalent host functional group. A genetically modified MDA-MB-231 human breast cancer cell line that has the Green Fluorescent Protein (GFP) directly coupled to the overexpressed CXCR4 receptor was used to study the interactions with CXCR4 positive cells. The CXCR4 chemokine receptor is over-expressed in the membrane of many human cancer cells, but CXCR4 also play a major role in the chemotaxis of stem cells. The cyclic peptide Ac-TZ14011 is often used to target this receptor and was also chosen here as the ligand. […] The binding strength between the receptor and the peptide was determined by competition with a previously reported modified Ac-TZ14011 derivative. […] The cells were then washed two times with 1% BSA in PBS, resuspended in 1% BSA in PBS and fluorescence of the reference compound was measured by using a BD FacsCanto™ II flow cytometer with APC-Cy7 settings. Live cells were gated on forward scatter and side scatter and 10000 viable cells were analyzed. […] The KD values were calculated by using the “Binding-Competitive, One site-Fit Ki” nonlinear regression equation of GraphPad Prism. […]
MDA-GFP-CXCR4+ cells were trypsinized (using 0.5% trypsin/EDTA, BD Biosciences) and counted. […]
A general note: A flow cytometer gives signals particle by particle.

A word on the pKd: it is the Kd on a negative log10 scale, so that one unit is a factor of ten. The low end stands for a high Kd, the high end for a low Kd.

pKd: −log10 of the molar value. Where a SMILES comes first, the peptide text is derived from it. Bridges are numbered along the chain shown (N, C = ends). [ ]: non-standard residue; d: D form. The star is where a group is joined. Adamantane1carbonyl = O=C(C12CC3CC(CC(C3)C1)C2)*; 2Nal = N[C@@H](Cc1ccc2ccccc2c1)C(=O)O; Cit = NC(=O)NCCC[C@H](N)C(=O)O

T1 sequence (P61073 whole entry): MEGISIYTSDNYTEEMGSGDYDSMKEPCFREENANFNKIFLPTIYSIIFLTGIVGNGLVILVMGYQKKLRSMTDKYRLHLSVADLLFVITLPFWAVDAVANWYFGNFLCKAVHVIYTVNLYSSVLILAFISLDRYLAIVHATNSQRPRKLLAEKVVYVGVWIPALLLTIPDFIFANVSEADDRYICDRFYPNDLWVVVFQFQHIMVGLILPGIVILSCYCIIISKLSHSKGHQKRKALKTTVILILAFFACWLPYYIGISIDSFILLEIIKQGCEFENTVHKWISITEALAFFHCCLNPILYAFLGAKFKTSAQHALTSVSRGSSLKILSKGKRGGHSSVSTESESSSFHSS

Turning to `CC(=O)N[C@@H](CCCNC(=N)N)C(=O)N[C@@H](CCCNC(=N)N)C(=O)N[C@@H](Cc1ccc2ccccc2c1)C(=O)N[C@H]1CSSC[C@@H](C(=O)N[C@@H](CCCNC(=N)N)C(N)=O)NC(=O)[C@H](CCCNC(N)=O)NC(=O)[C@H](CCCNC(=N)N)NC(=O)[C@H](Cc2ccc(O)cc2)NC(=O)[C@@H]2CCCN2C(=O)[C@@H](CCCCNC(=O)C23CC4CC(CC(C4)C2)C3)NC(=O)[C@H](CCCNC(=N)N)NC(=O)[C@H](CCCNC(N)=O)NC(=O)[C@H](Cc2ccc(O)cc2)NC1=O` [Ac-TZ14011-Ad] (Ac-RR[2Nal]CY[Cit]R[dK](Adamantane1carbonyl)PYR[Cit]CR-NH2; disulfide 4-13), in assay [1], the “attachment of functionalized cells to the cyclodextrin coated area” value is on record as “preferentially attach”. Besides, in assay [2], the pKd is 7.25.
